Assay [1] concerns Rattus norvegicus. Description: Antiinflammatory activity in rat assessed as inhibition of carrageenan-induced paw edema at 250 mg/kg administered via gavage relative to control. The assay is classed as functional. (The carrageenan paw model is a standard test of acute inflammation.)
The test system of assay [2] is Rattus norvegicus. As to the kind of experiment: Antiinflammatory activity in rat adjuvant-induced arthritis model assessed as mean surface area of paw at 50 mg/kg/day administered via gavage relative to control. The assay is classed as functional.
For assay [3], the system named is Rattus norvegicus. As to the kind of experiment: Antiinflammatory activity in rat adjuvant-induced arthritis model assessed as mean surface area of paw at 250 mg/kg administered via gavage relative to control. The assay is classed as functional, organism-based. On the set-up: dose 250 mg/kg.
Assay [4] concerns Rattus norvegicus. As to the kind of experiment: Antiinflammatory activity in rat assessed as inhibition of carrageenan-induced paw edema at 50 mg/kg administered via gavage relative to control. The class given is functional.
Assay [5] concerns Rattus norvegicus. Description: Antiinflammatory activity in rat adjuvant-induced arthritis model assessed as mean surface area of paw at 400 mg/kg/day administered via gavage relative to control. The assay is classed as functional.

Each structure is given as a SMILES string. Calls of active or inactive are those of the source. The calls are words filed in the database; no cut-off is given here.

As for `Clc1ccc(-c2nncnn2)cc1`, the C/T with Rattus norvegicus [1] is listed as 3.07. For the same compound, the Ratio with Rattus norvegicus [2] came to 0.54.

Turning to `Clc1ccc(-c2nccnn2)cc1`, the C/T in the assay on Rattus norvegicus [1] stood at 2.25. The result in the assay with Rattus norvegicus [3] was inactive.

Consider `CC(=O)Oc1ccccc1C(=O)O` [ASPIRIN], for which the C/T in the assay on Rattus norvegicus [4] amounted to 2.8. The Ratio in the assay with Rattus norvegicus [5] is recorded as 0.55.

Take `Fc1ccc(-c2nncnn2)cc1`: in the assay with Rattus norvegicus [1], the C/T worked out at 2.8. The Ratio with Rattus norvegicus [2] is on record as 0.46.

On to `Fc1ccc(-c2nccnn2)cc1`, for which the C/T in the assay with Rattus norvegicus [1] amounted to 2.67. Also, the result in the assay on Rattus norvegicus [3] was inactive.

The record behind these values is ChEMBL document CHEMBL3243933, “3-Aryl-as-triazines as potential antiinflammatory agents” (1977).
